pEC50, pKi: −log10 of the molar value.
What was measured:
[1] = target: 5-hydroxytryptamine receptor 1D (Homo sapiens, UniProt P28221); assay: Binding affinity for human 5-hydroxytryptamine 1D receptor
Oryctolagus cuniculus = organism: Oryctolagus cuniculus; assay: The compound was tested for its […] activity using rabbit saphenous vein (RSV) preparation; assay type: functional
[2] = target: 5-hydroxytryptamine receptor 1B (Homo sapiens, UniProt P28222); assay: Binding affinity towards cloned human 5-hydroxytryptamine 1B receptor
5-hydroxytryptamine receptor 1B, sequence (P28222 whole entry): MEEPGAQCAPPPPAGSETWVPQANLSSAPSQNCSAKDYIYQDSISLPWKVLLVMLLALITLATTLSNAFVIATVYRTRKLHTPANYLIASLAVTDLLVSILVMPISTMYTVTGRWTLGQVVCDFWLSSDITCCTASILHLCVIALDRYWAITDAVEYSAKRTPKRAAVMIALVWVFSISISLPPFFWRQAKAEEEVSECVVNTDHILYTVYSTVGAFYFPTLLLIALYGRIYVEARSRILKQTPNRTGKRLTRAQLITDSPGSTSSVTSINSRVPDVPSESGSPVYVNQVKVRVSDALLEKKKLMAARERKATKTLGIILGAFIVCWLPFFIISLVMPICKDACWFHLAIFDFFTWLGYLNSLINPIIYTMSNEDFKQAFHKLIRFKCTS

5-hydroxytryptamine receptor 1D, sequence (P28221 whole entry): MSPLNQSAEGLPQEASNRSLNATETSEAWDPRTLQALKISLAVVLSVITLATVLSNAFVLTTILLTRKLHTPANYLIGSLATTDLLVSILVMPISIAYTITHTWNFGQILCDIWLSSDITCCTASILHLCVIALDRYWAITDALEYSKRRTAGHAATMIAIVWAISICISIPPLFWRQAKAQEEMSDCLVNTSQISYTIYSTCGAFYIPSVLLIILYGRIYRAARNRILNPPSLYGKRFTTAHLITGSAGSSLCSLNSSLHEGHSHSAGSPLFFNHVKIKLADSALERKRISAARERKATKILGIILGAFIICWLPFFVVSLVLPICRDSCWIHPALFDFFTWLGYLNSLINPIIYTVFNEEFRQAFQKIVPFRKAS

CCc1ccc2[nH]cc(CCN(C)C)c2c1
pKi [1]: 7.80 | pEC50 (Oryctolagus cuniculus): 6.46

Cc1ccc2[nH]cc(C[C@H]3CCCN3C)c2c1
pKi [2]: 6.93 | pKi [1]: 8.46 | pEC50 (Oryctolagus cuniculus): 6.99

CC(C)c1ccc2[nH]cc(C[C@H]3CCCN3C)c2c1
pKi [2]: 7.98 | pKi [1]: 9.54 | pEC50 (Oryctolagus cuniculus): 7.54

CC(C)(C)c1ccc2[nH]cc(CCN3CCCC3)c2c1
pKi [2]: 6.51 | pKi [1]: 8.60 | pEC50 (Oryctolagus cuniculus): 5.93

CC(C)c1ccc2[nH]cc(CCN(C)C)c2c1
pKi [2]: 7.85 | pKi [1]: 9.40

CN1CCC[C@@H]1Cc1c[nH]c2ccc(C(C)(C)C)cc12
pKi [2]: 7.81 | pKi [1]: 9.60 | pEC50 (Oryctolagus cuniculus): 7.29

CNS(=O)(=O)Cc1ccc2[nH]cc(CCN(C)C)c2c1
pEC50 (Oryctolagus cuniculus): 6.76

CCc1ccc2[nH]cc(C[C@H]3CCCN3C)c2c1
pKi [2]: 7.33 | pKi [1]: 9.01 | pEC50 (Oryctolagus cuniculus): 7.83

Cn1cc(CCN)c2cc(C(C)(C)C)ccc21
pKi [1]: 9.35

CCc1ccc2[nH]cc(CCN3CCCC3)c2c1
pKi [2]: 5.79 | pKi [1]: 7.35

CC(C)c1ccc2[nH]cc(CCN3CCCC3)c2c1
pKi [2]: 6.33 | pKi [1]: 8.28 | pEC50 (Oryctolagus cuniculus): 6.36
